PubChem BioAssay AID2060906 (Molecular Pharmacology Branch, DTP, NCI, 2025)
pIC50: −log10 of the molar value.

System: 485176-168-R4-J1-PDC complex spheroid growth
Experiment: Anticancer human tumor 485176-168-R4-J1-PDC patient-derived pancreatic adenocarcinoma cell line growth inhibition [RAS]
Conditions: for pIC50: curve of first compound; for viability, T/C: stronger effect = lower value
Procedure, shortened: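 Tumour cells grown as complex spheroids with HUVEC endothelial cells and mesenchymal stem cells, treated with RAS pathway inhibitor combinations. Each agent spans half-log steps from near clinical Cmax, or 10 microM where Cmax is unknown.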

[1] = second compound 0.0316 µM, first compound 0.0316 µM
[2] = second compound 0.0316 µM, first compound 0.1 µM
[3] = second compound 0.0316 µM, first compound 0.316 µM
[4] = second compound 0.0316 µM, first compound 1 µM
[5] = second compound 0.1 µM, first compound 0.0316 µM
[6] = second compound 0.1 µM, first compound 0.1 µM
[7] = second compound 0.1 µM, first compound 0.316 µM
[8] = second compound 0.1 µM, first compound 1 µM
[9] = second compound 0.316 µM, first compound 0.0316 µM
[10] = second compound 0.316 µM, first compound 0.1 µM
[11] = second compound 0.316 µM, first compound 0.316 µM
[12] = second compound 0.316 µM, first compound 1 µM
[13] = second compound 1 µM, first compound 0.0316 µM
[14] = second compound 1 µM, first compound 0.1 µM
[15] = second compound 1 µM, first compound 0.316 µM
[16] = second compound 1 µM, first compound 1 µM
[17] = second compound 3.16 µM, first compound 0.0316 µM
[18] = second compound 3.16 µM, first compound 0.1 µM
[19] = second compound 3.16 µM, first compound 0.316 µM
[20] = second compound 3.16 µM, first compound 1 µM
[21] = second compound 10 µM, first compound 0.0316 µM
[22] = second compound 10 µM, first compound 0.1 µM
[23] = second compound 10 µM, first compound 0.316 µM
[24] = second compound 10 µM, first compound 1 µM
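Further: spheroids exposed to compounds for seven days before readout.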
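Wherever viability, T/C is given: luminescence viability expressed relative to DMSO vehicle wells set as 100%.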

With CC(=O)OC12COC1CC(O)C1(C)C(=O)C(O)C3=C(C)C(OC(=O)C(O)C(NC(=O)OC(C)(C)C)c4ccccc4)CC(O)(C(OC(=O)c4ccccc4)C21)C3(C)C (centres undefined) + C#Cc1c(F)ccc2cc(O)cc(-c3ncc4c(N5CC6CCC(C5)N6)nc(OCC56CCCN5CC(F)C6)nc4c3F)c12 the pIC50 (second compound 0.0316 µM) was over 7.50, the pIC50 (second compound 0.1 µM) was over 7.50 and the pIC50 (second compound 0.316 µM) was over 7.50. The pIC50 (second compound 1 µM) was over 7.50, the pIC50 (second compound 3.16 µM) was over 7.50 and the pIC50 (second compound 10 µM) was over 7.50. It also gave a viability, T/C [1] of 18.5%, a viability, T/C [2] of 15.3% and a viability, T/C [3] of 14.6%. It also gave a viability, T/C [4] of 13.5%, a viability, T/C (second compound 0.0316 µM, first compound 3.16 µM) of 18.5% and a viability, T/C (second compound 0.0316 µM, first compound 10 µM) of 21.8%. The viability, T/C [5] was 19.1%, the viability, T/C [6] was 14.5% and the viability, T/C [7] was 13.7%. It also gave a viability, T/C [8] of 14.9%, a viability, T/C (second compound 0.1 µM, first compound 3.16 µM) of 19.8% and a viability, T/C (second compound 0.1 µM, first compound 10 µM) of 21.2%. The viability, T/C [9] was 15.1%, the viability, T/C [10] was 12.4% and the viability, T/C [11] was 13.4%. For the same compound, the viability, T/C [12] was 11.6%, the viability, T/C (second compound 0.316 µM, first compound 3.16 µM) was 16.6% and the viability, T/C (second compound 0.316 µM, first compound 10 µM) was 19.4%. For the same compound, the viability, T/C [13] was 17%, the viability, T/C [14] was 15.8% and the viability, T/C [15] was 12.8%. The viability, T/C [16] was 11.8%, the viability, T/C (second compound 1 µM, first compound 3.16 µM) was 19.2% and the viability, T/C (second compound 1 µM, first compound 10 µM) was 20.6%. For the same compound, the viability, T/C [17] was 20.6%, the viability, T/C [18] was 16.5% and the viability, T/C [19] was 15.2%. The viability, T/C [20] was 13.8%, the viability, T/C (second compound 3.16 µM, first compound 3.16 µM) was 16.5% and the viability, T/C (second compound 3.16 µM, first compound 10 µM) was 20.6%. For the same compound, the viability, T/C [21] was 16.5%, the viability, T/C [22] was 12.2% and the viability, T/C [23] was 13.3%. It also gave a viability, T/C [24] of 11.7%, a viability, T/C (second compound 10 µM, first compound 3.16 µM) of 16% and a viability, T/C (second compound 10 µM, first compound 10 µM) of 19%.
Nc1ccn(C2OC(CO)C(O)C2(F)F)c(=O)n1 (centres undefined) + C#Cc1c(F)ccc2cc(O)cc(-c3ncc4c(N5CC6CCC(C5)N6)nc(OCC56CCCN5CC(F)C6)nc4c3F)c12 was tested, and the pIC50 (second compound 0.0316 µM) was 7.76, the pIC50 (second compound 0.1 µM) was 7.79 and the pIC50 (second compound 0.316 µM) was 7.85. For the same compound, the pIC50 (second compound 1 µM) was 7.74, the pIC50 (second compound 3.16 µM) was 7.82 and the pIC50 (second compound 10 µM) was 7.82. For the same compound, the viability, T/C (second compound 0.0316 µM, first compound 0.00316 µM) was 84%, the viability, T/C (second compound 0.0316 µM, first compound 0.01 µM) was 80.9% and the viability, T/C [1] was 15.7%. The viability, T/C [2] was 8.52%, the viability, T/C [3] was 8.6% and the viability, T/C [4] was 8.88%. It also gave a viability, T/C (second compound 0.1 µM, first compound 0.00316 µM) of 87.7%, a viability, T/C (second compound 0.1 µM, first compound 0.01 µM) of 76.1% and a viability, T/C [5] of 15.6%. It also gave a viability, T/C [6] of 8.78%, a viability, T/C [7] of 9.24% and a viability, T/C [8] of 9.6%. It also gave a viability, T/C (second compound 0.316 µM, first compound 0.00316 µM) of 80.7%, a viability, T/C (second compound 0.316 µM, first compound 0.01 µM) of 66.1% and a viability, T/C [9] of 13.2%. It also gave a viability, T/C [10] of 7.37%, a viability, T/C [11] of 11.3% and a viability, T/C [12] of 10.4%. For the same compound, the viability, T/C (second compound 1 µM, first compound 0.00316 µM) was 94.8%, the viability, T/C (second compound 1 µM, first compound 0.01 µM) was 84.9% and the viability, T/C [13] was 17.8%. For the same compound, the viability, T/C [14] was 7.27%, the viability, T/C [15] was 10.2% and the viability, T/C [16] was 9.53%. The viability, T/C (second compound 3.16 µM, first compound 0.00316 µM) was 82.5%, the viability, T/C (second compound 3.16 µM, first compound 0.01 µM) was 69.7% and the viability, T/C [17] was 16.5%. For the same compound, the viability, T/C [18] was 10.8%, the viability, T/C [19] was 10.5% and the viability, T/C [20] was 10.3%. The viability, T/C (second compound 10 µM, first compound 0.00316 µM) was 92.4%, the viability, T/C (second compound 10 µM, first compound 0.01 µM) was 71.2% and the viability, T/C [21] was 14.2%. For the same compound, the viability, T/C [22] was 11.5%, the viability, T/C [23] was 10.9% and the viability, T/C [24] was 9.84%.
